Among the data in PubChem BioAssay (NCI) are GI50 and TGI values, retold here.

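Step 1: Grow cells in 96-well plates. Step 2: Expose to compound for 48 hours at 5 concentrations. Step 3: Interpolate endpoints linearly; if unreached, use highest concentration. GI50 = concentration required for 50% inhibition of growth. TGI marks complete inhibition of growth.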

Experiment in all cases: NCI anticancer screen, dose series, 48 h
The subject of assay [1] is A549 NSCLC.
Assay [2] relates to BT-549 breast.
In assay [3] the test system is CCRF-CEM leukemia.
In assay [4] the test system is EKVX NSCLC.
Assay [5] deals with M14 melanoma.
Assay [6] relates to MDA-MB-231 breast.
For assay [7], the system named is NCI-H23 lung.
For assay [8], the system named is NCI/ADR-RES ovarian.
For assay [9], the system named is PC-3 prostate.
Assay [10] concerns MOLT-4 leukemia.

Regarding `C=CCC(N[C@@H](CO)c1ccccc1)c1ccc2ccccc2n1` (some centres not stated), the GI50 is greater than 100 µM in assay [1]; greater than 100 µM in assay [2]; 46.1 µM in assay [3]; greater than 100 µM in [4]; greater than 100 µM in [5]; 45.8 µM in assay [6]. For the same compound, the GI50 is greater than 100 µM in [7], greater than 100 µM in [8] and greater than 100000 nM in assay [9]. For the same compound, the TGI in assay [1], in [2], in [3], in [4], in assay [5] and in assay [6] was greater than 100 µM throughout. Further, the TGI in assay [7], in assay [8] and in assay [9] was greater than 100 µM each time.
As for `CCn1cc(C(=O)O)c(=O)c2cc(F)c(N3CCN(S(=O)(=O)c4ccc(Cl)cc4Cl)CC3)cc21`, the GI50 is 2.89 µM in assay [1]; 2.64 µM in [2]; 3.03 µM in [3]; 3.24 µM in [5]; 1.88 µM in [6]; 3.55 µM in assay [10]. Further, the GI50 in assay [7] was 2.33 µM; in [8], 3.28 µM; in assay [9], 2430 nM. The TGI is greater than 100 µM in [1]; 7.89 µM in assay [2]; greater than 100 µM in [3]; 10.8 µM in assay [5]; 4.7 µM in assay [6]; greater than 100 µM in assay [10]. Besides, the TGI in assay [7] stood at 5.97 µM; in [8], 28 µM; in [9], 10.7 µM.
Take `O=[N+]([O-])c1cccc(/C=N/Nc2ccc3ccccc3n2)c1O`: the TGI is greater than 70.8 µM in [1]; 37.9 µM in [2]; 39.1 µM in assay [4]; 5.32 µM in assay [5]; 25.6 µM in assay [6]; 10.7 µM in [10]. In addition, the TGI is 12.1 µM in assay [7], 3.5 µM in [8] and 56.7 µM in [9].
`OCCCN=C1CCCCC1`: the TGI in assay [1], in assay [2], in assay [4], in assay [5], in [6] and in assay [10] was greater than 100 µM throughout. Further, the TGI in assay [7], in [8] and in assay [9] was greater than 100 µM throughout.
For the compound `NC(=NCCCCCCN=C(N)/N=C(\N)Nc1ccc(Cl)cc1)/N=C(\N)Nc1ccc(Cl)cc1`, the GI50 was 1.05 µM in assay [1]; 1.52 µM in [2]; 1.53 µM in assay [4]; 1.71 µM in [5]; 1.42 µM in [6]; 1.09 µM in assay [10]. In addition, the GI50 in [7] was 1.16 µM; in assay [8], 4.09 µM; in assay [9] it was 1740 nM. Besides, the TGI in assay [1] is 5.3 µM; in [2], 4.24 µM; in [4] it was 8.3 µM; in assay [5], 6 µM; in assay [6], 3.96 µM; in [10], 2.84 µM. Further, the TGI in assay [7] stood at 3.59 µM; in assay [8], 50 µM; in [9], 6.38 µM.
Regarding `CC1(C)N=C(N)N=C(N)N1c1ccc(CCCC(=O)Nc2ccc(S(=O)(=O)F)cc2)cc1`, the GI50 is 9.82 µM in assay [1]; 22.8 µM in assay [2]; 4.13 µM in assay [3]; 5.44 µM in [5]; 45.7 µM in [6]; 14.2 µM in assay [10]. The GI50 was 8.59 µM in assay [7], greater than 100 µM in [8] and 469 nM in [9]. Also, the TGI in assay [1], in assay [2], in [3], in assay [5], in assay [6] and in [10] was greater than 100 µM in each case. Moreover, the TGI in assay [7], in [8] and in [9] was greater than 100 µM each time.
As for `N=C(N)c1ccc2oc3ccc(C(=N)N)cc3c(=O)c2c1`, the TGI in [1], in assay [2], in [3], in [5], in assay [6] and in assay [10] was greater than 100 µM in each case. For the same compound, the TGI in assay [7], in [8] and in assay [9] was greater than 100 µM each time.
With `Clc1ccc(C=Nc2ccc(-c3nc4ccccc4[nH]3)cc2)cc1`, the GI50 in assay [1], in assay [2], in assay [3], in assay [4], in assay [5] and in assay [6] was greater than 100 µM each time. Besides, the GI50 in [7] was greater than 100 µM; in assay [8], greater than 100 µM; in assay [9] it was greater than 100000 nM. In addition, the TGI in assay [1], in assay [2], in assay [3], in assay [4], in assay [5] and in assay [6] was greater than 100 µM in each case. Also, the TGI in assay [7], in assay [8] and in assay [9] was greater than 100 µM each time.
Regarding `COc1cccc(/C=C2\N=C(c3ccccc3)OC2=O)c1`, the TGI is greater than 100 µM in [1]; greater than 100 µM in assay [2]; 58.8 µM in assay [3]; greater than 100 µM in assay [4]; greater than 100 µM in assay [5]; greater than 100 µM in assay [6]. Besides, the TGI in assay [7] is greater than 100 µM; in [8], 90.6 µM; in assay [9], greater than 100 µM.
Regarding `COc1cc(-c2nc(-c3ccccc3)c(-c3ccccc3)[nH]2)cc(OC)c1O`, the GI50 was 19 µM in assay [1]; 19.5 µM in assay [2]; 23.4 µM in [3]; 16.7 µM in assay [6]; 17.1 µM in assay [10]; 19 µM in [7]. The GI50 in assay [8] is 24.6 µM; in assay [9], 17900 nM. Further, the TGI in assay [1] came to 57 µM; in [2], 39.5 µM; in [3], 70.4 µM; in assay [6] it was 34.2 µM; in assay [10], 64.9 µM; in assay [7] it was 38.7 µM. Besides, the TGI in assay [8] was found to be 73.8 µM; in assay [9] it was 50.2 µM.
